Our source for the GI50 and TGI values is PubChem BioAssay (NCI).

Where “and” joins values, the source holds several entries; their conditions need not be identical. Equal values may be shown once.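 Five concentrations, 48 hours, 96-well plates. Abbreviation: GI50, concentration required for 50% inhibition of growth. TGI is the concentration that stops growth completely.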

Among the test systems are A498 renal; A549 NSCLC; BT-549 breast; MDA-MB-435; NCI-H226 lung; RPMI-8226 leukemia; SF-268 CNS; SK-MEL-28 melanoma.
Experiment in all cases: inhibition of tumour cell growth, NCI panel, 48 h

Turning to `Cn1cnc([N+](=O)[O-])c1S(=O)(=O)Oc1ccccc1`, the GI50 in the experiment with A498 renal is 16.8 µM; with A549 NSCLC it was 38.1 µM; with BT-549 breast, 20.7 µM; in the experiment on MDA-MB-435 it was 9840 nM; in the experiment on NCI-H226 lung, 19.8 µM; in the experiment with RPMI-8226 leukemia, 4.69 µM. Also, the GI50 in the experiment with SF-268 CNS was 16.5 µM; in the experiment with SK-MEL-28 melanoma, 8610 nM. The TGI was 38.1 µM in the experiment with A498 renal; above 100 µM in the experiment with A549 NSCLC; 45.4 µM with BT-549 breast; 31.9 µM in the experiment with MDA-MB-435; 60 µM in the experiment on NCI-H226 lung; 17.6 µM in the experiment with RPMI-8226 leukemia. Besides, the TGI in the experiment with SF-268 CNS was found to be 48.2 µM; in the experiment with SK-MEL-28 melanoma it was 32.2 µM.
Consider `Nc1nccc2c1ccn2-c1ccc(NC(=O)c2ccc(N3CCOCC3)c(C(F)(F)F)c2)cc1`, for which the GI50 in the experiment on A498 renal is 0.402 µM; with A549 NSCLC, 1.39 µM; in the experiment with BT-549 breast, 1.03 µM; with MDA-MB-435, 690 nM; in the experiment with NCI-H226 lung, 5.62 µM; with RPMI-8226 leukemia, 0.311 µM. Besides, the GI50 in the experiment on SF-268 CNS is 0.879 µM; with SK-MEL-28 melanoma it was 1170 nM. The TGI in the experiment with A498 renal came out at 2.94 µM; with A549 NSCLC, 15.3 µM; with BT-549 breast it was 24.7 µM; in the experiment with MDA-MB-435, 2.99 µM; with NCI-H226 lung it was 20 µM; in the experiment with RPMI-8226 leukemia, 2.88 µM. Also, the TGI in the experiment with SF-268 CNS was found to be 15.1 µM; in the experiment on SK-MEL-28 melanoma, 14.1 µM.
As to `CC(CC(=O)O)C(C(=O)O)C(=O)O` (stereo not drawn), the TGI in the experiment on A498 renal, in the experiment on A549 NSCLC, in the experiment with BT-549 breast, with MDA-MB-435, with NCI-H226 lung and with RPMI-8226 leukemia was above 100 µM throughout. The TGI in the experiment on SF-268 CNS and in the experiment on SK-MEL-28 melanoma was above 100 µM in each case.
As for `O=C(CC(O)(C(F)(F)F)C(F)(F)F)c1cc(CC(=O)C(O)(C(F)(F)F)C(F)(F)F)cc(CC(=O)C(O)(C(F)(F)F)C(F)(F)F)c1`, the TGI in the experiment with A498 renal was 5.43 µM; in the experiment with A549 NSCLC it was 5.62 µM; with BT-549 breast, 4.93 µM; in the experiment with MDA-MB-435, above 4.25 µM; with NCI-H226 lung it was above 6.85 µM; with RPMI-8226 leukemia, above 10 µM. Moreover, the values for the TGI in the experiment with SF-268 CNS and in the experiment with SK-MEL-28 melanoma were above 10 µM and above 5.88 µM, respectively.
Turning to `Cc1cn2c(/C=C3\C(=O)Nc4ccc(O)cc43)c(-c3ccc(Cl)cc3)nc2s1`, the GI50 is 16.8 µM with A498 renal; 19.1 µM in the experiment with A549 NSCLC; 17.3 µM with BT-549 breast; 17600 nM in the experiment with MDA-MB-435; 18.5 µM with NCI-H226 lung; 34.5 µM with RPMI-8226 leukemia. For the same compound, the GI50 in the experiment with SF-268 CNS was 15.2 µM; with SK-MEL-28 melanoma, 12200 nM. The TGI is 38.8 µM in the experiment on A498 renal; above 100 µM in the experiment on A549 NSCLC; 41.5 µM in the experiment with BT-549 breast; 88.8 µM in the experiment with MDA-MB-435; 51 µM with NCI-H226 lung; above 100 µM in the experiment on RPMI-8226 leukemia. The TGI was 54.5 µM in the experiment on SF-268 CNS and 28.1 µM in the experiment with SK-MEL-28 melanoma.
Take `O=C(c1c(F)ccc(NS(=O)(=O)N2CC[C@@H](F)C2)c1F)c1c[nH]c2ncc(-c3cnc(C4CC4)nc3)cc12`: the GI50 in the experiment with A498 renal is 3.95 µM and 3.77 µM; in the experiment on A549 NSCLC, 5.85 µM and 7.09 µM; with BT-549 breast, > 8.75 µM and 6.83 µM; with MDA-MB-435, 17.4 nM and 27.2 nM; in the experiment with NCI-H226 lung, 4.81 µM and 9.14 µM; with RPMI-8226 leukemia, 5.59 µM and 5.45 µM. Moreover, the GI50 with SF-268 CNS was 5.86 µM and 6.77 µM; with SK-MEL-28 melanoma it was 3.75 nM and < 10 nM. The TGI with A498 renal is > 10 µM and 23.1 µM; in the experiment with A549 NSCLC it was > 10 µM and 40.3 µM; in the experiment on BT-549 breast, > 10 µM and 38.1 µM; with MDA-MB-435, > 10 µM and 23.1 µM; in the experiment on NCI-H226 lung it was > 10 µM and 64.6 µM; in the experiment with RPMI-8226 leukemia, > 10 µM and 42.2 µM. Moreover, the TGI was > 10 µM and 71.3 µM with SF-268 CNS; 0.194 µM and 0.599 µM in the experiment with SK-MEL-28 melanoma.
Regarding `Cc1ccc(/C=C/c2c(C(=O)/C=C/c3ccc(C(F)(F)F)cc3)c(C)nc3ccccc23)cc1`, the GI50 in the experiment on A498 renal is 1.77 µM; in the experiment with A549 NSCLC, 2.03 µM; in the experiment with BT-549 breast, 1.58 µM; in the experiment on MDA-MB-435, 1490 nM; in the experiment with NCI-H226 lung it was 1.5 µM; with RPMI-8226 leukemia it was 0.46 µM. In addition, the GI50 in the experiment on SF-268 CNS was 1.57 µM; in the experiment on SK-MEL-28 melanoma, 1930 nM. Besides, the TGI in the experiment with A498 renal worked out at 3.24 µM; with A549 NSCLC, 4.76 µM; in the experiment on BT-549 breast it was 3.34 µM; in the experiment with MDA-MB-435 it was 2.89 µM; in the experiment with NCI-H226 lung it was 3.03 µM; in the experiment with RPMI-8226 leukemia it was 2.92 µM. The TGI amounted to 3.09 µM in the experiment with SF-268 CNS and 3.63 µM in the experiment with SK-MEL-28 melanoma.
`CC(C)=CCc1cc(O)cc2c1OC(C=C(C)C)C1=C2C(=O)C2=C(NCCS2(=O)=O)C1=O` (stereo not drawn): the GI50 was 2.94 µM in the experiment with A498 renal; 3.17 µM with A549 NSCLC; 2.87 µM in the experiment on BT-549 breast; 315 nM in the experiment with MDA-MB-435; 2.06 µM with NCI-H226 lung; 4.42 µM in the experiment on RPMI-8226 leukemia. The figures for the GI50 in the experiment with SF-268 CNS and in the experiment on SK-MEL-28 melanoma were 2.34 µM and 2390 nM, respectively. The TGI with A498 renal turned out to be 5.47 µM; with A549 NSCLC, 6.83 µM; in the experiment on BT-549 breast, 5.23 µM; in the experiment with MDA-MB-435 it was 0.634 µM; in the experiment with NCI-H226 lung it was 5.34 µM; with RPMI-8226 leukemia, 14 µM. Besides, the TGI worked out at 8.2 µM in the experiment on SF-268 CNS and 5.13 µM with SK-MEL-28 melanoma.
In the case of `NS(=O)(=O)c1ccc(N(/C=C/C(=O)C(F)(F)F)CC(=O)c2ccc(Cl)cc2)cc1`, the GI50 was above 100 µM in the experiment on A498 renal; 49.7 µM with A549 NSCLC; 44.5 µM in the experiment on BT-549 breast; above 100000 nM with MDA-MB-435; 28.9 µM with NCI-H226 lung; 20.2 µM with RPMI-8226 leukemia. In addition, the GI50 in the experiment with SF-268 CNS is 34.5 µM; with SK-MEL-28 melanoma it was above 100000 nM. For the same compound, the TGI with A498 renal was above 100 µM; in the experiment on A549 NSCLC, above 100 µM; in the experiment with BT-549 breast it was above 100 µM; in the experiment on MDA-MB-435, above 100 µM; in the experiment on NCI-H226 lung, 94.1 µM; in the experiment with RPMI-8226 leukemia, 53.6 µM. For the same compound, the TGI with SF-268 CNS and in the experiment with SK-MEL-28 melanoma was above 100 µM each time.
